The values that follow come from patent EP0549002A1, “Method for the preparation of an antiseptic composition containing clindamycin-hydrochloride and polymyxin” (priority 1991, dated 1993).

By MIC is commonly meant the least concentration at which growth counts as inhibited.

The test system of series [1] is Pasteurella haemolytica 3R188 and 6R132. Kind of series: MIC by plate dilution method (horseblood-agar). It is filed as cell-based. The settings on record: both P. haemolytica isolates; single agent; observed during 24 hours. Here is the method: Two clinical isolates of Pasteurella haemolytica were studied. The bacteria were isolated from calves and identified. The isolates included P. haemolytica 3R188 and 6R132.
The strength of the inoculating suspension was 2 MacFarland. The plates were observed during 24 hours after incubation.

Series [2] relates to Mycoplasma hyorhinis type strain BTS-7. The series is described as follows: MIC by serial broth dilution method (Friis broth, glucose metabolism colour change). Particulars: single agent; read at day 5; 37°C aerobic. It is filed as cell-based. The procedure:
Friis-broth was added to each well.
(In general: In broth dilution the organism is exposed to a series of concentrations in liquid medium.)

Series [3] is described as follows: Acute toxicity (general statement). The settings on record: in combination with Clindamycin; mammals and humans. It counts as in vivo.

Some results are limits rather than exact numbers.

Polymyxin E (Colistin): in series [1], the “minimal inhibitory concentrations (MICs)” value is 1,6 µg/ml. Moreover, the MIC in series [2] is > 50 µg/mL. Further, the acute toxicity entry in series [3] is recorded as “strikingly reduced”.
